In assay [1] the test system is HEp-2 cell viability, cytotoxicity. The assay can be described thus: HEp-2 cell cytotoxicity, dose response, cytotoxicity control, set 1 (AID 602483).
Assay in assay [2]: as above
Conditions: HEp-2 cell viability, cytotoxicity; at 50 µM (top of the series).

The source made the active and inactive calls. No rule for the calls is given here.

By CC50 is commonly meant the concentration giving 50% cytotoxicity. Take `CN(C(=O)Cc1cccs1)c1nc2c(s1)CCCC2`: in assay [1], the CC50 is 5.67 µM.

In general, viability refers to the share of living cells, or the viability signal relative to a control. In the case of `CN1CCN(Cc2nc3ccc([N+](=O)[O-])cc3c(=O)n2-c2ccccc2F)CC1`, the viability in assay [2] was 70.1% (inactive).

As for `CCN1CCN(Cc2nc3ccc([N+](=O)[O-])cc3c(=O)n2-c2ccccc2F)CC1`, in assay [2], the viability was 72.6% (inactive).

Source of the values: PubChem BioAssay AID602483 (Southern Research Specialized Biocontainment Screening …, 2012).
